Tests used:
[1] = biological target: 5-HT2C receptors; design: method as in ref Lyon et al., 1988; Pierce and Peroutka, 1989; McKenna et al., 1990; Keiser et al., 2009; Ray, 2010; conditions: ref Lyon et al., 1988; Pierce and Peroutka, 1989; McKenna et al., 1990; Keiser et al., 2009; Ray, 2010; cited from earlier work
[2] = system: serotonin 5-HT1A; design: method as in ref Lyon et al., 1988; Pierce and Peroutka, 1989; McKenna et al., 1990; Keiser et al., 2009; Ray, 2010; conditions: ref Lyon et al., 1988; Pierce and Peroutka, 1989; McKenna et al., 1990; Keiser et al., 2009; Ray, 2010; cited from earlier work
[3] = biological target: T1, serotonin 5-HT2A receptors (Rattus norvegicus, UniProt P14842); assay: Ex vivo occupancy at frontal cortex 5-HT2A receptors with [^18F]MH.MZ (experiment 2); type: in vivo; conditions: Experiment 2, [^18F]MH.MZ
T1 construct: from tissue; host or cells: rat frontal cortex (living rat brain, measured ex vivo after in vivo radioligand injection)
T1 sequence (P14842 whole entry): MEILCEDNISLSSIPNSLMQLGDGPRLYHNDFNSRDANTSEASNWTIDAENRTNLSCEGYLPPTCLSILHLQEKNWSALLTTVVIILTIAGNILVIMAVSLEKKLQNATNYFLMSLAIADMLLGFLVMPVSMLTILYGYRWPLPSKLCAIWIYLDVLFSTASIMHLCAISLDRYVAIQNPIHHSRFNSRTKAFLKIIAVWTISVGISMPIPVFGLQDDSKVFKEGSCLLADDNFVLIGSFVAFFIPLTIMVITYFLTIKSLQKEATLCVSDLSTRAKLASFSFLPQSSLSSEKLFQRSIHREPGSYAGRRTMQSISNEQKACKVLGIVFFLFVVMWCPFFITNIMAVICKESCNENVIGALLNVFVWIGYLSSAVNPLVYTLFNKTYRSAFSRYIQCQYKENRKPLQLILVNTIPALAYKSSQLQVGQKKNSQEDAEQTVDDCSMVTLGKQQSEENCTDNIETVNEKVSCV
Protocol: Animals were lightly sedated using 2% isoflurane in pure oxygen at 20 min post DMT injection, whereupon they received a 0.2 mL intravenous injection of [^18F]MH.MZ diluted in saline to a radiochemical concentration of approximately 20 MBq/mL. Rats then returned to their home cage with withdrawal of anesthesia. After 45 min, rats were sacrificed by decapitation, and the brains dissected into cerebellum and frontal cortex samples for radioactivity measurement and chemical analysis, thus 65 min after harmine + DMT. The gamma-activity in weighed samples of cerebellum and frontal cortex regions was counted with a Packard Cobra gamma counter (GMI, Ramsey, Minnesota, US), as previously reported ([Bærentzen et al., 2019]). As with [^3H]ketanserin, the occupancy at [^18F]MH.MZ binding sites in frontal cortex was calculated from the specific binding ratio (cortex-cerebellum)/cerebellum) measured in the saline control and treatment groups.

[4] = system: brain glucose metabolism; assay: [^18F]FDG-PET of cerebral glucose metabolism (experiment 1); type: in vivo, rat; conditions: for [^18F]FDG-PET SUV normalized to whole-brain uptake (SUVglob): 1 mg/kg s.c.; for [^18F]FDG-PET SUV normalized to whole-brain uptake (SUVglob) / [^18F]FDG-PET glucose normalized SUV (SUVgluc): mean (SD)
Protocol: The dynamic PET recordings were histogrammed into six frames of 5 minutes each, and reconstructed with attenuation, decay, and scatter correction using the OSEM3D/SP-MAP algorithm (2 x OSEM iterations and 18 x MAP iterations) with a matrix size of 128 × 128 pixels, resulting in a final target resolution of 0.8 mm/pixel. Pre-processing of PET scans was performed using PMOD v4.2 (PMOD Technologies LLC, Zurich, Switzerland). The [^18F]FDG images were averaged across the six frames and then converted into standardized uptake values (SUV), whereupon the image was cropped to the head of the animal and automatically co-registered to a standard [^18F]FDG-PET template. We used Schiffer’s atlas ([Schiffer et al., 2006]) for parcellation of bilateral brain regions within the cortico-striato-thalamo-cortical (CSTC) circuit, i.e. bilateral nucleus accumbens (NAc), medial prefrontal cortex (mPFC), orbitofrontal cortex (OFC), hippocampus, striatum, thalamus, visual cortex, cerebellum as a comparator region, and whole brain. We selected these regions from the CSTC circuit based on a conceptual model holding that the thalamus acts as a filter/gatekeeper of sensory information, broadcasting to cortical regions that subserve conscious experience ([Wang et al., 2006]; [McAlonan et al., 2008]). Perturbation of this CSTC circuit is implicated in the action of psychedelic compounds ([Geyer and Vollenweider, 2008]; [Preller et al., 2019]). We scaled individual regional SUV results to the mean blood glucose levels measured during the recording session (SUVgluc) and to the global [^18F]FDG uptake (SUVglob).

[5] = system: brain 5-HT2A receptors; conditions: calculated; humans, oral DMT and harmine; ref Koeck, 2015; cited from earlier work
[6] = biological target: T1, serotonin 5-HT2A receptors; assay: Ex vivo occupancy at frontal cortex 5-HT2A receptors with [^3H]ketanserin (experiment 1); type: in vivo
Protocol: Groups of (n = 6) rats received either saline, harmine (1 mg/kg), DMT (1 mg/kg), or harmine + DMT (1 mg/kg each) as subcutaneous injections, as indicated in Figure 1. Approximately 5 minutes later, the animals were lightly anesthetized using (2% isoflurane in pure oxygen) and received [^3H]ketanserin (300 kBq; 740 MBq/µmol) as a bolus injection in 0.2 mL saline via a tail vein. […] At the conclusion of the PET recording, rats were sacrificed while still anesthetized, thus 95 min after drug administration. Terminal samples of cerebellum (non-binding reference tissue) and frontal cortex were transferred to preweighed 7 mL liquid scintillation vials, reweighed, and added with 0.9 mL of aqueous based solubilizer (Solvable, Perkin Elmer) for dissolution during 48 h at room temperature. Next, 7 mL of liquid scintillation counting cocktail (Ultima Gold™ XR, Perkin Elmer) was added to each sample, and the content of tritium (i.e., [^3H]ketanserin, cpm/mg) was measured by liquid scintillation counting (TRI-CARB, Perkin Elmer). We calculated the occupancy by DMT at frontal cortex 5-HT2A receptors for the three treatment groups relative to the specific binding ratio ([cortex-cerebellum]/cerebellum) for the control group.

[7] = biological target: serotonin 5-HT2A receptors; design: method as in ref Lyon et al., 1988; Pierce and Peroutka, 1989; McKenna et al., 1990; Keiser et al., 2009; Ray, 2010; conditions: ref Lyon et al., 1988, Pierce and Peroutka, 1989, McKenna et al., 1990, Keiser et al., 2009, Ray, 2010, cited from earlier work
[8] = system: rats; assay: Behavioural observations in treated rats; type: in vivo, rat; conditions: in some DMT- (and harmine-) treated rats; not systematically assessed
[9] = Brain concentrations of harmine, DMT and metabolites by UHPLC-MS after s.c. harmine and/or DMT; conditions: for concentration at 95 min / concentration at 65 min: rat, subcutaneous
Protocol: Groups of (n = 6) rats received either saline, harmine (1 mg/kg), DMT (1 mg/kg), or harmine + DMT (1 mg/kg each) as subcutaneous injections, as indicated in Figure 1.
After 45 min, rats were sacrificed by decapitation, and the brains dissected into cerebellum and frontal cortex samples for radioactivity measurement and chemical analysis, thus 65 min after harmine + DMT.

CN(C)CCc1c[nH]c2ccccc12 [DMT, N,N-dimethyltryptamine]
IC50 [1]: 360 nM
Ki [1]: 360 to 2630 nM
IC50 [2]: 170 nM
Ki [2]: 183 nM
Occupancy at 5-HT2A sites ex vivo [3]: unable to detect any such occupancy
Qualitative effect on brain [^18F]FDG uptake (SUVglob maps) ([4]; 1 mg/kg, separately or in combination): no conspicuous effects
Trend towards relative increase in SUVglob in hippocampus and thalamus ([4]; Experiment 1, 1 mg/kg): ~5%
[^18F]FDG-PET SUV normalized to whole-brain uptake (SUVglob) ([4]; NAc): 6.2 (0.36) SUV
[^18F]FDG-PET glucose normalized SUV (SUVgluc) ([4]; NAc, 1 mg/kg): 6.48 (0.93) SUV
[^18F]FDG-PET SUV normalized to whole-brain uptake (SUVglob) ([4]; OFC): 6.52 (0.15) SUV
[^18F]FDG-PET glucose normalized SUV (SUVgluc) ([4]; OFC, 1 mg/kg): 6.82 (0.84) SUV
[^18F]FDG-PET SUV normalized to whole-brain uptake (SUVglob) ([4]; cerebellum): 4.56 (0.23) SUV
[^18F]FDG-PET glucose normalized SUV (SUVgluc) ([4]; cerebellum, 1 mg/kg): 4.76 (0.64) SUV
[^18F]FDG-PET SUV normalized to whole-brain uptake (SUVglob) ([4]; hippocampus): 4.95 (0.21) SUV
[^18F]FDG-PET glucose normalized SUV (SUVgluc) ([4]; hippocampus, 1 mg/kg): 5.2 (0.85) SUV
[^18F]FDG-PET SUV normalized to whole-brain uptake (SUVglob) ([4]; mPFC): 6.95 (0.34) SUV
[^18F]FDG-PET glucose normalized SUV (SUVgluc) ([4]; mPFC, 1 mg/kg): 7.3 (1.24) SUV
[^18F]FDG-PET SUV normalized to whole-brain uptake (SUVglob) ([4]; striatum): 6.91 (0.24) SUV
[^18F]FDG-PET glucose normalized SUV (SUVgluc) ([4]; striatum, 1 mg/kg): 7.24 (1.07) SUV
[^18F]FDG-PET SUV normalized to whole-brain uptake (SUVglob) ([4]; thalamus): 6.33 (0.1) SUV
[^18F]FDG-PET glucose normalized SUV (SUVgluc) ([4]; thalamus, 1 mg/kg): 6.62 (0.86) SUV
[^18F]FDG-PET SUV normalized to whole-brain uptake (SUVglob) ([4]; visual cortex): 6.27 (0.13) SUV
[^18F]FDG-PET glucose normalized SUV (SUVgluc) ([4]; visual cortex, 1 mg/kg): 6.57 (0.99) SUV
[^18F]FDG-PET glucose normalized SUV (SUVgluc) ([4]; whole brain, 1 mg/kg): 5.8 (0.81) SUV
Time of peak DMT occupancy post-administration [5]: 0.5 to 1.5 h
[^3H]ketanserin specific binding ratio in frontal cortex ([6]; Experiment 1, 1 mg/kg each s.c., 95 min after administration, (cortex-cerebellum)/cerebellum): 2.15 ± 0.39
Occupancy at 5-HT2A sites ex vivo ([6]; Experiment 1, [^3H]ketanserin): unable to detect any such occupancy
IC50 ([7]; read-out: IC50 at 5-HT2A receptors in vitro): 75 to 360 nM
Ki ([7]; read-out: Ki at 5-HT2A receptors in vitro): 127 to 1200 nM
Head twitch response [8]: observed the characteristic dose-dependent head twitch response
Percentage of total molar concentration of DMT and metabolites ([9]; Exp 1, group DMT, average of regions): 2.3%
Percentage of total molar concentration of DMT and metabolites ([9]; Exp 1, group DMT, cerebellum): 2.0%
Percentage of total molar concentration of DMT and metabolites ([9]; Exp 1, group DMT, front cort): 2.6%
Percentage of total molar concentration of DMT and metabolites ([9]; Exp 1, group Har + DMT, average of regions): 33.9%
Percentage of total molar concentration of DMT and metabolites ([9]; Exp 1, group Har + DMT, cerebellum): 32.9%
Percentage of total molar concentration of DMT and metabolites ([9]; Exp 1, group Har + DMT, front cort): 34.7%
Percentage of total molar concentration of DMT and metabolites ([9]; Exp 2, group Har + DMT, average of regions): 73.3%
Percentage of total molar concentration of DMT and metabolites ([9]; Exp 2, group Har + DMT, cerebellum): 71.1%
Percentage of total molar concentration of DMT and metabolites ([9]; Exp 2, group Har + DMT, front cort): 74.9%
DMT detectable in brain ([9]; Experiment 1, after DMT alone (1 mg/kg)): Only traces
Brain concentration ([9]; Experiment 1, cerebellum, group Har + DMT (1 mg/kg each s.c.), 95 min, mean (SD)): 105.1 (89.2) ng/g
Brain concentration ([9]; Experiment 1, frontal cortex, group Har + DMT (1 mg/kg each s.c.), 95 min, mean (SD)): 149.5 (123.2) ng/g
DMT/3-IAA ratio in brain ([9]; Experiment 1, harmine + DMT 1 mg/kg each): approximately 0.53
Brain concentration ([9]; Experiment 2, cerebellum, group Har + DMT (3 mg/kg each s.c.), 65 min, mean (SD)): 1472.7 (369.2) ng/g
Brain concentration ([9]; Experiment 2, frontal cortex, group Har + DMT (3 mg/kg each s.c.), 65 min, mean (SD)): 2122.7 (434.2) ng/g
DMT/3-IAA ratio in brain ([9]; Experiment 2, harmine + DMT 3 mg/kg each): ~2.83
Brain concentration after 3 mg/kg harmine + DMT relative to the lower harmine + DMT dose ([9]; Experiment 2 versus experiment 1): 14 fold
Higher DMT concentration in frontal cortex compared to cerebellum ([9]; Experiments 1 and 2, harmine + DMT): 50%
concentration at 95 min ([9]; brain (average of frontal cortex and cerebellum), 1 mg/kg, Molar concentration, Exp 1, group DMT, average of regions): 61.5 nM
concentration at 95 min ([9]; brain (average of frontal cortex and cerebellum), Molar concentration, Exp 1, group Har + DMT, average of regions): 676 nM
concentration at 65 min ([9]; brain (average of frontal cortex and cerebellum), Molar concentration, Exp 2, group Har + DMT, average of regions): 9550 nM
concentration at 95 min ([9]; cerebellum, 1 mg/kg, Brain concentration, Experiment 1, cerebellum, group DMT (1 mg/kg s.c.), 95 min, mean (SD)): 8.7 ng/g
concentration at 95 min ([9]; cerebellum, 1 mg/kg, Molar concentration, Exp 1, group DMT, cerebellum): 46 nM
concentration at 95 min ([9]; cerebellum, Brain concentration, Experiment 1, cerebellum, after harmine + DMT (1 mg/kg each)): 600 nM
concentration at 95 min ([9]; cerebellum, Brain concentration, Experiment 1, cerebellum, group Har (harmine 1 mg/kg s.c.), 95 min after drug, mean (SD)): 4.1 ng/g
concentration at 95 min ([9]; cerebellum, Brain concentration, Experiment 1, cerebellum, group Har + DMT (1 mg/kg each s.c.), 95 min, mean (SD)): 105 ng/g
concentration at 65 min ([9]; cerebellum, Brain concentration, Experiment 2, cerebellum, after harmine + DMT (3 mg/kg each)): 7800 nM
concentration at 65 min ([9]; cerebellum, Brain concentration, Experiment 2, cerebellum, group Har + DMT (3 mg/kg each s.c.), 65 min, mean (SD)): 1470 ng/g
concentration at 95 min ([9]; cerebellum, Molar concentration, Exp 1, group Har + DMT, cerebellum): 558 nM
concentration at 65 min ([9]; cerebellum, Molar concentration, Exp 2, group Har + DMT, cerebellum): 7820 nM
concentration at 95 min ([9]; frontal cortex, 1 mg/kg, Brain concentration, Experiment 1, frontal cortex, group DMT (1 mg/kg s.c.), 95 min, mean (SD)): 14.5 ng/g
concentration at 95 min ([9]; frontal cortex, 1 mg/kg, Molar concentration, Exp 1, group DMT, front cort): 77.1 nM
concentration at 95 min ([9]; frontal cortex, Brain concentration, Experiment 1, frontal cortex, after harmine + DMT (1 mg/kg each), 95 min): 800 nM
concentration at 95 min ([9]; frontal cortex, Brain concentration, Experiment 1, frontal cortex, group Har (harmine 1 mg/kg s.c.), 95 min, mean (SD)): 4.8 ng/g
concentration at 95 min ([9]; frontal cortex, Brain concentration, Experiment 1, frontal cortex, group Har + DMT (1 mg/kg each s.c.), 95 min, mean (SD)): 150 ng/g
concentration at 65 min ([9]; frontal cortex, Brain concentration, Experiment 2, frontal cortex, after harmine + DMT (3 mg/kg each), 65 min): ≤ 11300 nM
concentration at 65 min ([9]; frontal cortex, Brain concentration, Experiment 2, frontal cortex, group Har + DMT (3 mg/kg each s.c.), 65 min, mean (SD)): 2120 ng/g
concentration at 95 min ([9]; frontal cortex, Molar concentration, Exp 1, group Har + DMT, front cort): 794 nM
concentration at 65 min ([9]; frontal cortex, Molar concentration, Exp 2, group Har + DMT, front cort): 11300 nM

Reference: publication PMC10568461, “A pilot study of cerebral metabolism and serotonin 5-HT2A receptor occupancy in rats treated with the psychedelic tryptamine DMT in conjunction with the MAO inhibitor harmine” (Frontiers in Pharmacology, 2023)
